Measurements taken from patent US12636385B2, “Selective ligands for tau aggregates” (Sentonix, Inc., priority 2018, dated 2026).
One block for each compound: values may come before it.

Assays:
tau plaques = test: Autoradiography on brain sections from CBD and PSP patients; assay type: binding, human; details: 3 nM radiotracer, with or without 1 μM unlabeled compound; compared with antibody AT8
Protocol: To examine binding of the example compounds of the present invention to tau plaques in vitro, autoradiography was carried out on brain sections from corticobasal degeneration (CBD) and progressive supranuclear palsy (PSP) patients incubated with [^3H]-Example Compound 72 or [^3H]-Example Compound 48 in the presence or absence of unlabeled Example Compound […] (1 μM) or unlabeled Example Compound 48 (1 μM), respectively. The experiment was performed as previously described in Johnson, A. E., et al, Journal of Neurochemistry (2009), Vol. 108, pages 1177-1186, but using post mortem cortical samples from corticobasal degeneration (CBD) and progressive supranuclear palsy (PSP) patients instead of from Alzheimer's disease patients.
Briefly, brain sections from the cortical samples were incubated for 30 min at 22° C. in 50 mN Tris buffer (pH 7.4) together with 3 nM [^3H]-Example Compound 72 or 3 nM [^3H]-Example Compound 48 in the presence of absence of on unlabeled Example Compound 72 (1 μM) or unlabeled Example Compound 48 (1 μM), respectively. The sections were then washed (3×10 min) in Tris buffer (1° C.) followed by a rinse in deionized water (1° C.) and air-dried at 22° C. in front of a fan. Binding was then measured and analysed as described in Johnson, A. E., et al.
The tau pathology was confirmed on adjacent brain sections by immunohisto-chemistry (IHC) using Phospho-Tau (Ser202, Thr205) Monoclonal Antibody (AT8) as previously as described in Biernat, J., et al, EMBO J. (1992) Vol. 4, pages 1593-1597. AT8 was obtained from Thermo Fisher Scientific (Phospho-PHF-Tau, Thermo Ficher Scientific, Catalog No. MN1020, Stock cone: 0.2 mg/ml, Working solution: 1/100).

0N4R Tau fibrils [1] = target: T1, 0N4R Tau fibrils (Homo sapiens, UniProt P10636); test: ^3H-THK5117 competition binding to tau fibrils in vitro
T1 construct: made in house
Protocol: Preparation of recombinant 0N4R Tau fibrils was performed as previously described in Morozova, O. A., Biochemistry (2013), Vol., 52(40), pages 6960-6967. Competition binding experiments to 0N4R Tau fibrils were performed by incubating increasing concentrations [10^−10-10^−6 M] of the Example compounds of the invention, or the known tau specific ligand PBB3 (PBB3 was synthesized as previously described in M. Maruyama, et al, Neuron 2013, 79, 1094-1108) or MK6240 (Novandi Chemistry AB), in the presence of 3 nM of the known tau ligand [^3H]-THK5117 (Novandi Chemistry) and 0.2 mM 0N4R tau fibrils in binding buffer (50 mM Tris-HCl, pH 7.4, 0.1% BSA) for 1 h in the dark, and at 22° C. The incubation was terminated by filtration through a Whatman GF/B glass filter (Whatman International, Kent, UK) using a Brandel cell harvester. The filter was then washed rapidly four times with 3 mL of ice-cold wash buffer (5 mM Tris-HCl, 0.25 mM NaCl, 5% EtOH), and equilibrated for 1 h in scintillation vials containing 5 mL of Ultima Gold scintillation fluid before being analysed using a Liquid Scintillation Analyzer.
The results are shown in Table 2 in the column labeled “Tau IC50”.
Relative selectivity for tau compared to Aβ for the exemplified compounds was calculated using the results for the [^3H]-THK5117 tau and [^3H]-AZD2184 Aβ assays described above. The calculated results are shown in Table 2 in the column labeled “Selectivity for tau relative to Aβ”.

0N4R Tau fibrils [2] = target: T1, 0N4R Tau fibrils; test: In vitro competitive binding to 0N4R tau fibrils in the presence of [^3H]-Example Compound 68 (FIG. 1)
MAO-B = target: T2, MAO-B (Homo sapiens, UniProt P27338); test: MAO-B recombinant enzyme assay (D-Luciferin derivative); assay type: biochemical; details: tested at 1 μM; for inhibition at 1 µM: read-out: % inhibition of control enzyme activity, MAO-B
T2 construct: EuroFins Pharma Discovery Service (assay service)
T2 sequence (P27338 1-520): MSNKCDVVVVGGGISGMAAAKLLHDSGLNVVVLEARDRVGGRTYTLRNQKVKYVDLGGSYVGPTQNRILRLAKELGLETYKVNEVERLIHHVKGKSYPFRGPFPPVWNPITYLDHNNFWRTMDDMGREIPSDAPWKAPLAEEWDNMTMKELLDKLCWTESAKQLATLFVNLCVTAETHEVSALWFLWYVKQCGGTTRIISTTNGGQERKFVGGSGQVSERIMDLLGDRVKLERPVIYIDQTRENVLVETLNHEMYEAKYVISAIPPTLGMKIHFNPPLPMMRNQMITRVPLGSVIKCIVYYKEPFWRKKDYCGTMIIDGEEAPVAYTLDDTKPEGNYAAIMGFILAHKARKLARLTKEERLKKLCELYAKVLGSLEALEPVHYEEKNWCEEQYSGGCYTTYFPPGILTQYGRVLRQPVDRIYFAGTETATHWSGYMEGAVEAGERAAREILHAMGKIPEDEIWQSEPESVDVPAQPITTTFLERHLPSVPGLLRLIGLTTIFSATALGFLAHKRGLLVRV
Protocol: (§1) MAO enzyme and uptake assays were also performed (EuroFins Pharma Discovery Service) as described in Weyler, W., et al., J. Biol. Chem. (1985), Vol. 260, pages 13199-13207, using the materials and conditions described in Table 4; and as described in Tsugeno, U., et al., J Biochem. (1995), Vol. 118, pages 974-980, using the materials and conditions described in Table 5, for Example Compound 43, Example Compound 48 and the known tau ligand THK-5117. The three compounds were tested at 1 μM. Compound enzyme/uptake inhibition effect was calculated as a % inhibition of control enzyme activity.
(§2) The results of the enzyme and uptake assays are expressed as a percent inhibition of control specific activity obtained in the presence of the test compounds: […]

MAO-A [3] = target: T3, MAO-A (Homo sapiens, UniProt P21397); test: MAO-A enzyme and uptake assay (kynuramine); assay type: biochemical; details: tested at 1 μM, human placenta; for inhibition at 1 µM: read-out: % inhibition of control enzyme activity, MAO-A
T3 construct: EuroFins Pharma Discovery Service (assay service)
T3 sequence (P21397 1-527): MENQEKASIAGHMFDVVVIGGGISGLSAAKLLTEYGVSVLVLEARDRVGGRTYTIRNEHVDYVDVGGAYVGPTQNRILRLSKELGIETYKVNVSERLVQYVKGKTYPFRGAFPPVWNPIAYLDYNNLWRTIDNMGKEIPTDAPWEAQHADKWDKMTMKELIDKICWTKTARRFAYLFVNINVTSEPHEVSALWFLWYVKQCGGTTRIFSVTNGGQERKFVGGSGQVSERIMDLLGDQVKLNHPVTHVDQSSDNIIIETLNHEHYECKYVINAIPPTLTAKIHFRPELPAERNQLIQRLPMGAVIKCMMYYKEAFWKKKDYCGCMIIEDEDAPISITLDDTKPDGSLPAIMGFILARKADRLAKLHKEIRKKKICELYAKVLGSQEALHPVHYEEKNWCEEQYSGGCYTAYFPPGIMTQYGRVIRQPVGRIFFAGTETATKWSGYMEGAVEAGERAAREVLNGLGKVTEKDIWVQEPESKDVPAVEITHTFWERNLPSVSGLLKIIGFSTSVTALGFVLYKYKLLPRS
Protocol: as §1, §2

MAO-A [4] = target: T4, MAO-A (Rattus norvegicus, UniProt P21396); test: MAO-A binding assay ([^3H]-Ro41-1049); details: tested at 1 μM, rat cerebral cortex; for inhibition at 1 µM: read-out: % inhibition of control specific binding, MAO-A binding assay
T4 construct: tissue EuroFins Pharma Discovery Service (assay service); host or cells: rat cerebral cortex (own knowledge of the vendor's assay)
T4 sequence (P21396 1-526): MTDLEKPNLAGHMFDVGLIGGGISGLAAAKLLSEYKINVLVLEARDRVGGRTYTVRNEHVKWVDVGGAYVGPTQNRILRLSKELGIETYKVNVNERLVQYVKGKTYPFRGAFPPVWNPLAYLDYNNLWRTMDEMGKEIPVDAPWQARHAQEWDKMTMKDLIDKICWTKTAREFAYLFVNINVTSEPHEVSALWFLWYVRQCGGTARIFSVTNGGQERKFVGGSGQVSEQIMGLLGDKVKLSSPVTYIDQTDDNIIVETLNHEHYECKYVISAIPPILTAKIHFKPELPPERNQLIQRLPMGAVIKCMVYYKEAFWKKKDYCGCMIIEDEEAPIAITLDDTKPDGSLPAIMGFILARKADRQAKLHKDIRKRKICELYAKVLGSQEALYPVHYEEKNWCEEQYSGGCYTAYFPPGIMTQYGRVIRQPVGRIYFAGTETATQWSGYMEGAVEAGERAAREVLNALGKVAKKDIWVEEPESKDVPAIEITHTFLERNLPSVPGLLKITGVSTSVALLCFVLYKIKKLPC
Protocol: A monoamine oxidase inhibitor (MAO) binding assay for MAO-A was performed (EuroFins Pharma Discovery Service) for Example Compound 43, Example Compound 48 and the known tau ligand THK-5117. The three compounds were tested at 1 μM. Compound binding was calculated as a % inhibition of the binding of the selective MAO-A inhibitor [^3H]-Ro41-1049 for MAO-A binding.
The MAO-A binding assay was carried our as described in Cesura, A. M., et al, Mol. Phamacol. (1990), Vol 37, pages 358-366, using the materials and conditions described in Table 3.
The results of the MAO-A binding assay are expressed as a percent inhibition of control specific binding obtained in the presence of the test compounds: […]

[5] = Rat brain cassette exposure study; assay type: in vivo, Sprague Dawley rat; details: intravenous cassette dosing; for half-life: male, Sprague Dawley, rat, brain, samples at 2 min and 30 min, read-out: calculated half-life (t1/2) in rat brain tissue; for clearance from normal rat brain tissue: 2 min and 30 min
Protocol: The in vivo pharmacokinetic characteristics of the example compounds of the invention were compared directly with the known beta-amyloid specific ligand AZD2184 (Johnson, A. E., et al, Journal of Neurochemistry (2009), Vol. 108, pages 1177-1186). Rat brain exposure to three compounds of the invention and AZD2184 was measured by intravenous cassette dosing three test compound: Example Compound 43, Example Compound 47 and Example Compound 48; and AZD2184 (Novandi Chemistry) (concentration of 0.25 μmol/mL each) using the procedure previously described in Johnson, A. E., et al, Journal of Neurochemistry (2009), Vol. 108, pages 1177-1186. 6 male Sprague Dawley rat were used in the experiments, three rats per time point (2 min and 30 min).

[6] = 3 nM [^3H]-THK5117, recombinant 0N4R tau fibrils, average if run more than once

T1 sequence (P10636 1-383 isoform P10636-6): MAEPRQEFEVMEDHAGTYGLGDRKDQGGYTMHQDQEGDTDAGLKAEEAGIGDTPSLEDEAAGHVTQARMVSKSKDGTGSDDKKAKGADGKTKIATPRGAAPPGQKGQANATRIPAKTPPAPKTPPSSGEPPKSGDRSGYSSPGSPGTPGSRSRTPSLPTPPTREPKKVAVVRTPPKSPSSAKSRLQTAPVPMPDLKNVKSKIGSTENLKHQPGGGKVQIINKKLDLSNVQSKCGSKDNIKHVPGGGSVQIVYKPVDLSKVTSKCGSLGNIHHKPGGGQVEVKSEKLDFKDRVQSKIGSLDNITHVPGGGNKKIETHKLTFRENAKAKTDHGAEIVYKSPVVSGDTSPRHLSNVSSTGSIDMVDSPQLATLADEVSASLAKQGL
Sequence of tau plaques (P10636 561-708 limits assumed): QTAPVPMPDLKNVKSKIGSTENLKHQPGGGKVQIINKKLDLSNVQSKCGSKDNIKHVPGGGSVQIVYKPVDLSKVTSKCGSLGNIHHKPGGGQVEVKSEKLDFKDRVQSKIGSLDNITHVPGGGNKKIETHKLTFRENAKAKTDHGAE

Compound: [^3H] labeled (1-{5-[5-(2-Fluoroethoxy)-1H-indol-2-yl]pyrimidin-2-yl}piperidin-4-yl)methanol [[^3H]-Example Compound 72]
radiotracer binding in CBD brain tissue (tau plaques): displaceable binding in CBD brain tissue that correlate with tau-specific antibody AT8
radiotracer binding in PSP brain tissue (tau plaques): displaceable binding in PSP brain tissue that correlate with tau-specific antibody AT8

Compound: COc1ccc2[nH]c(-c3ccc(N4CCC(C(N)=O)CC4)nc3F)cc2c1 [Example Compound 68, 1-[6-Fluoro-5-(5-methoxy-1H-indol-2-yl)pyridin-2-yl]piperidine-4-carboxamide]
tau binding site shared (competition with [^3H]-Example Compound 68) (0N4R Tau fibrils [2]): share the same binding site

Compound: [^3H] labeled 2-(2-fluoro-6-{4-[hydroxymethyl]piperidin-1-yl}pyridin-3-yl)-1H-indol-5-ol [[^3H]-Example Compound 48]
radiotracer binding in CBD brain tissue (tau plaques): displaceable binding in CBD brain tissue that correlates with the tau-specific antibody AT8
radiotracer binding in PSP brain tissue (tau plaques): displaceable binding in PSP brain tissue that correlates with the tau-specific antibody AT8

Compound: OCC1CCN(c2ccc(-c3cc4cc(O)ccc4[nH]3)c(F)n2)CC1 [Example Compound 48, 2-{2-Fluoro-6-[4-(hydroxymethyl)piperidin-1-yl]pyridin-3-yl}-1H-indol-5-ol]
inhibition at 1 µM (MAO-B): < 25%
clearance from normal rat brain tissue [5]: rapidly cleared
half-life [5]: 8.21 min
tau binding site shared (competition with [^3H]-Example Compound 68) (0N4R Tau fibrils [2]): share the same binding site
inhibition at 1 µM (MAO-A [3]): < 25%
inhibition at 1 µM (MAO-A [4]): < 25%

Compound: COc1ccc2[nH]c(-c3ccc(N4CCC(CO)CC4)nc3F)cc2c1 [Example Compound 47, {1-[6-Fluoro-5-(5-methoxy-1H-indol-2-yl)pyridin-2-yl]piperidin-4-yl}methanol]
clearance from normal rat brain tissue [5]: rapidly cleared
half-life [5]: 15.8 min

Further lines, results first:

Selectivity for tau relative to Aβ (0N4R Tau fibrils [1]; calculated from [^3H]-THK5117 tau and [^3H]-AZD2184 Aβ assays): 4
tau binding site shared (competition with [^3H]-Example Compound 68) (0N4R Tau fibrils [2]): share the same binding site
Compound: CNc1ccc(/C=C/C=C/c2nc3ccc(O)cc3s2)cn1 [PBB3, reference compound]

% inhibition of control enzyme activity, MAO-B (MAO-B): ≤ 50%
% inhibition of control enzyme activity, MAO-A (MAO-A [3]): ≤ 50%
% inhibition of control specific binding, MAO-A binding assay (MAO-A [4]): ≤ 50%
Compound: CNc1ccc(-c2ccc3cc(OCC(O)CF)ccc3n2)cc1 (stereo not shown) [THK-5117, reference compound]

inhibition at 1 µM (MAO-B): < 25%
half-life [5]: 379 min
inhibition at 1 µM (MAO-A [3]): < 25%
inhibition at 1 µM (MAO-A [4]): < 25%
Compound: NC(=O)c1ccc2nc(-c3cnc(N4CCC(CCF)CC4)nc3)sc2c1 [Example Compound 43, 2-{2-[4-(2-Fluoroethyl)piperidin-1-yl]pyrimidin-5-yl}-1,3-benzothiazole-6-carboxamide]

IC50 (0N4R Tau fibrils [1]; [6]): > 1000 nM
Tau IC50 (0N4R Tau fibrils [1]; [6]): inactive
tau binding site shared (competition with [^3H]-Example Compound 68) (0N4R Tau fibrils [2]): does not share the same binding site
Compound: Nc1c(F)ccc2cnc(-n3ccc4ccncc43)cc12 [MK-6240, reference compound]
